Earlier results on 1 compound are cited in US8658806B2, “Process for preparing optically active antrocin” (Deyew Biotech Corp., priority 2011, dated 2014).

Molecules are shown by their SMILES.

As usually defined, the IC50 is the concentration that gives 50% inhibition.

The series relates to MDA-MB-231 cells. The conditions noted are these: from Rao et al., Chem. Res. Toxicol. 2011, 24, 238-245, read-out: IC50 value against MDA-MB-231 cells of metastatic breast cancer.

Regarding `C=C1CC[C@H]2C(C)(C)CCC[C@@]23C(=O)OC[C@@H]13` [antrocin], the IC50 is 600 nM.
